Data taken from patent US11040975B2, “Carbocyclic nucleoside reverse transcriptase inhibitors” (Merck Sharp & Dohme Corp., priority 2017, dated 2021).
Like-named read-outs stand apart in the source and are kept apart here.

Experiments:
MT4-GFP cells = assay: CTG assay: cytotoxicity in CellTiter-Glo Luminescent Cell Viability Assay; format: cell-based; settings: CC50, MT4-GFP cells, 10% normal human serum, 48h incubation
Protocol: Assessing Cytotoxicity in CellTiter-Glo Luminescent Cell Viability Assay (CTG).
MT4-GFP cells were seeded in RPMI 1640 supplemented with 10% fetal bovine serum, 100 U/mL penicillin/streptomycin overnight at 37° C./5% CO2/90% relative humidity. Cells were then washed and resuspended in RPMI 1640 containing 10% normal human serum at a density of 0.8×10^5 cells/mL. Compound plates were prepared by dispensing compounds dissolved in DMSO into wells of 384 well solid black plates (Corning 3571) using an ECHO acoustic dispenser (0.2 μl/well). Each compound was tested in a 10 point serial 3-fold dilution (final concentrations: 8.4 μM-0.43 nM). Controls included DMSO. Cells were added (50 μL/well) to compound plates and were maintained at 37° C./5% CO2/90% relative humidity. CTG reagent (Promega, G7573) was added to the cell plates after 48h incubation according to the manufacturer's description. Luminescence signals were recorded on EnVision plate reader (PerkinElmer). CC50s were determined by non-linear 4-parameter curve fitting. The resulting data is shown in Table 3 with the marketed HIV nucleoside reverse transcriptase inhibitor AZT (azidothymidine, zidovudine) included as a control.

HIV-1 (H9IIIB virus) = assay: Viking assay: antiviral potency in a multiple round HIV-1 infection assay (MT4-GFP cells); format: cell-based; settings: Human immunodeficiency virus 1, MT4-GFP cells, 10% normal human serum; inhibition of reproductive ratio R0; read-out: Viking, IC50 (10% NHS)
Protocol: Assessing Antiviral Potency in a Multiple Round HIV-1 Infection Assay.
HIV-1 replication was monitored using MT4-gag-GFP clone D3 (hereafter designate MT4-GFP), which are MT-4 cells modified to harbor a GFP reporter gene, the expression of which is dependent on the HIV-1 expressed proteins tat and rev. Productive infection of an MT4-GFP cell with HIV-1 results in GFP expression approximately 24h post-infection.
MT4-GFP cells were maintained at 37° C./5% CO2/90% relative humidity in RPMI 1640 supplemented with 10% fetal bovine serum, 100 U/mL penicillin/streptomycin, and 400 μg/mL G418 to maintain the reporter gene. For infections, MT4-GFP cells were placed in the same medium lacking G418 and infected overnight with H9IIIB virus at an approximate multiplicity of infection of 0.01 in the same incubation conditions. Cells were then washed and re-suspended in either RPMI 1640 containing 10% or 50% normal human serum at 1.6×10^5 cells/mL. Compound plates were prepared by dispensing compounds dissolved in DMSO into wells of 384 well poly D lysine-coated plates ([…]) using an ECHO acoustic dispenser. Each compound was tested in a 10 point serial 3-fold dilution (typical final concentrations: 8.4 μM-0.43 nM). Controls included no inhibitor (DMSO only) and a combination of three antiviral agents (efavirenz, indinavir, and an integrase strand transfer inhibitor at final concentrations of 4 μM each). Cells were added (50 μL/well) to compound plates and the infected cells were maintained at 37° C./5% CO2/90% relative humidity.
Infected cells were quantified at two time points, ˜48h and ˜72h post-infection, by counting the number of green cells in each well using an Acumen eX3 scanner. The increase in the number of green cells over ˜24h period gives the reproductive ratio, R0, which is typically 5-15 and has been shown experimentally to be in logarithmic phase (data not shown). Inhibition of R0 is calculated for each well, and IC50s determined by non-linear 4-parameter curve fitting.

HIV-1 RT enzyme = target: T1, HIV-1 RT enzyme (Human immunodeficiency virus type 1 group M subtype B, UniProt P04585); assay: RT Polymerase Assay; format: biochemical
T1 construct: Full-length wild-type and 2 mutant RT proteins were expressed in Escherichia coli BL21(DE3) cells and purified; made in house; host or cells: Escherichia coli BL21(DE3)
Excerpt: The compounds of Formula I, and pharmaceutically acceptable salts thereof, are HIV reverse transcriptase inhibitors. The compounds are useful for inhibiting HIV reverse transcriptase and for inhibiting HIV replication in vitro and in vivo. More particularly, the compounds of Formula I inhibit the polymerase function of HIV-1 reverse transcriptase. The testing of compounds of the Examples of the invention in the assay set forth in the RT Polymerase Assay below, illustrates the ability of compounds of the invention to inhibit the RNA-dependent DNA polymerase activity of HIV-1 reverse transcriptase. The compounds of Formula I may also be useful agents against HIV-2.
Full-length wild-type and 2 mutant RT proteins were expressed in Escherichia coli BL21(DE3) cells and purified. Briefly, the heterodimeric nucleic acid substrate used in the HIV-1 RT polymerase reactions was generated by annealing biotinylated DNA primer to a 500 nucleotide RNA template. The HIV-1 RT enzyme (final concentration of 50 pM) was combined with an inhibitor compound or DMSO (10% DMSO in the final reaction mixture) in assay buffer (62.5 mM Tris-HCl, pH 7.8, 1.25 mM dithiothreitol, 7.5 mM MgCl2, 100 mM KCl, 0.03% CHAPS, 0.125 mM EGTA). This mixture was pre-incubated for 30 minutes at room temperature in microtiter plates. The polymerization reaction was initiated by the addition of template/primer substrate (final concentration: 16.6 nM) and dNTPs (final concentration: 2 μM dCTP, dGTP, dATP, and 66.6 nM Ru-dUTP). After 90 min of incubation at 37° C., reactions were quenched by the addition of EDTA (25 mM). The resulting mixture was incubated for an additional 5 minutes at room temperature followed by transferring the solution (50 μL) to blocked avidin plate from Meso Scale Discovery (MSD). The mixtures were incubated at room temperature for 60 min prior to the quantification of the reaction product via an ECL 6000 imager instrument.

[1] = HIV-1 RT 50 pM, 90 min at 37° C., triphosphates tested, read-out: dNTP IC50

Molecule	CTG (MT4-GFP cells) [µM]	IC50 (HIV-1 (H9IIIB virus)) [µM]	IC50 (HIV-1 RT enzyme; [1]) [pM]	IC50 (HIV-1 RT enzyme) [pM]
C#C[C@]1(CO)C[C@@H](n2cnc3c(N)nc(F)nc32)C[C@@H]1O (racemic) [Example (+/−) 13, (1S,2S,4R)-4-(6-amino-2-fluoro-9H-purin-9-yl)-2-ethynyl-2-(hydroxymethyl)cyclopentan-1-ol and (1R,2R,4S)-4-(6-amino-2-fluoro-9H-purin-9-yl)-2-ethynyl-2-(hydroxymethyl)cyclopentan-1-ol]	> 42	5.43	–	–
C#C[C@@]1(CO)C[C@H](n2cnc3c(N)nc(Cl)nc32)C[C@H]1O (single isomer, unassigned) [Example 18A, (1S,2S,4R)-4-(6-amino-2-chloro-9H-purin-9-yl)-2-ethynyl-2-(hydroxymethyl)cyclopentan-1-ol or (1R,2R,4S)-4-(6-amino-2-chloro-9H-purin-9-yl)-2-ethynyl-2-(hydroxymethyl)cyclopentan-1-ol]	> 42	25.2	–	–
C#C[C@]1(CO)C[C@@H](n2cnc3c(Cl)nc(Cl)nc32)C[C@@H]1O (racemic) [Example (+/−) 17, (1S,2S,4R)-4-(2,6-dichloro-9H-purin-9-yl)-2-ethynyl-2-(hydroxymethyl)cyclopentan-1-ol and (1R,2R,4S)-4-(2,6-dichloro-9H-purin-9-yl)-2-ethynyl-2-(hydroxymethyl)cyclopentan-1-ol]	19.9	17.4	–	–
((1S,2S,4R)-4-(2,4-dichloro-7H-pyrrolo[2,3-d]pyrimidin-7-yl)-1-ethynyl-2-hydroxycyclopentyl)methyl tetrahydrogen triphosphate and ((1R,2R,4S)-4-(2,4-dichloro-7H-pyrrolo[2,3-d]pyrimidin-7-yl)-1-ethynyl-2-hydroxycyclopentyl)methyl tetrahydrogen triphosphate [Example (+/−) 45]	–	–	3.38e+07	–
C#CC1(COP(=O)(O)OP(=O)(O)OP(=O)(O)O)CC(n2cnc3c(=O)[nH]c(N)nc32)CC1O (racemic) [Example (+/−) 47, ((1S,2S,4R)-4-(2-amino-6-oxo-1,6-dihydro-9H-purin-9-yl)-1-ethynyl-2-hydroxycyclopentyl)methyl tetrahydrogen triphosphate and ((1R,2R,4S)-4-(2-amino-6-oxo-1,6-dihydro-9H-purin-9-yl)-1-ethynyl-2-hydroxycyclopentyl)methyl tetrahydrogen triphosphate]	–	–	–	324000
((1S,2S,4R)-4-(6-amino-2-chloro-9H-purin-9-yl)-1-ethynyl-2-hydroxycyclopentyl)methyl tetrahydrogen triphosphate or ((1R,2R,4S)-4-(6-amino-2-chloro-9H-purin-9-yl)-1-ethynyl-2-hydroxycyclopentyl)methyl tetrahydrogen triphosphate [Example 44B]	–	–	9.32e+06	–
((1S,2S,4R)-4-(6-chloro-2-fluoro-9H-purin-9-yl)-1-ethynyl-2-hydroxycyclopentyl)methyl tetrahydrogen triphosphate and ((1R,2R,4S)-4-(6-chloro-2-fluoro-9H-purin-9-yl)-1-ethynyl-2-hydroxycyclopentyl)methyl tetrahydrogen triphosphate [Example (+/−) 40]	–	–	> 1e+08	–
C#CC1(COP(=O)(O)OP(=O)(O)OP(=O)(O)O)CC(n2ccc(N)nc2=O)CC1O (racemic) [Example (+/−) 49, ((1S,2S,4R)-4-(4-amino-2-oxopyrimidin-1(2H)-yl)-1-ethynyl-2-hydroxycyclopentyl)methyl tetrahydrogen triphosphate and ((1R,2R,4S)-4-(4-amino-2-oxopyrimidin-1(2H)-yl)-1-ethynyl-2-hydroxycyclopentyl)methyl tetrahydrogen triphosphate]	–	–	–	> 1e+08
C#C[C@]1(CO)C[C@@H](n2cnc3c(N)nc(Cl)nc32)C[C@@H]1O (racemic) [Example (+/−) 18, (1S,2S,4R)-4-(6-amino-2-chloro-9H-purin-9-yl)-2-ethynyl-2-(hydroxymethyl)cyclopentan-1-ol and (1R,2R,4S)-4-(6-amino-2-chloro-9H-purin-9-yl)-2-ethynyl-2-(hydroxymethyl)cyclopentan-1-ol]	> 42	19	–	–
((1S,2S,4R)-4-(6-amino-2-chloro-9H-purin-9-yl)-1-ethynyl-2-hydroxycyclopentyl)methyl tetrahydrogen triphosphate and ((1R,2R,4S)-4-(6-amino-2-chloro-9H-purin-9-yl)-1-ethynyl-2-hydroxycyclopentyl)methyl tetrahydrogen triphosphate [Example (+/−) 44]	–	–	2.02e+07	–
Cc1cn([C@H]2C[C@H](N=[N+]=[N-])[C@@H](CO)O2)c(=O)[nH]c1=O [AZT, 3′-azido-3′-deoxythymidine, reference compound]	>8.4	0.037	–	–
C#CC1(COP(=O)(O)OP(=O)(O)OP(=O)(O)O)CC(n2cc(C)c(=O)[nH]c2=O)CC1O (racemic) [Example (+/−) 48, ((1S,2S,4R)-1-ethynyl-2-hydroxy-4-(5-methyl-2,4-dioxo-3,4-dihydropyrimidin-1(2H)-yl)cyclopentyl)methyl tetrahydrogen triphosphate and ((1R,2R,4S)-1-ethynyl-2-hydroxy-4-(5-methyl-2,4-dioxo-3,4-dihydropyrimidin-1(2H)-yl)cyclopentyl)methyl tetrahydrogen triphosphate]	–	–	–	114000
C#C[C@]1(CO)C[C@@H](n2cnc3c(Cl)nc(N)nc32)C[C@@H]1O (racemic) [Example (+/−) 14, (1S,2S,4R)-4-(2-amino-6-chloro-9H-purin-9-yl)-2-ethynyl-2-(hydroxymethyl)cyclopentan-1-ol and (1R,2R,4S)-4-(2-amino-6-chloro-9H-purin-9-yl)-2-ethynyl-2-(hydroxymethyl)cyclopentan-1-ol]	> 42	5.64	–	–
((1S,2S,4R)-4-(4-amino-2-chloro-7H-pyrrolo[2,3-d]pyrimidin-7-yl)-1-ethynyl-2-hydroxycyclopentyl)methyl tetrahydrogen triphosphate and ((1R,2R,4S)-4-(4-amino-2-chloro-7H-pyrrolo[2,3-d]pyrimidin-7-yl)-1-ethynyl-2-hydroxycyclopentyl)methyl tetrahydrogen triphosphate [Example (+/−) 46]	–	–	1.39e+07	–
